Source: US11285127B2, “Compositions and methods for lowering triglycerides without raising LDL-C levels in a subject on concomitant statin therapy” (Amarin Pharmaceuticals Ireland Limited, priority 2013, dated 2022)

Key:
[1] = test system: patients with fasting triglyceride levels >200 mg/dl and <500 mg/dl despite statin therapy; assay: 12-week study: lipoprotein particle size (VLDL, LDL, HDL; nuclear magnetic resonance); type: in vivo, human; conditions: for LDL Particle Size, Week 12 EP Median (IQR): MITT; for LDL Particle Size, Percent change from Baseline, Median (IQR) / LDL Particle Size, Difference from placebo, Estimated median: Week 12, MITT; for LDL Particle Size, Difference from placebo, Estimated median: difference in percent change
Description: (§1) Parameters (a)-(z) can be measured in accordance with any clinically acceptable methodology. For example, triglycerides, total cholesterol, HDL-C and fasting blood sugar can be sample from serum and analyzed using standard photometry techniques. VLDL-TG, LDL-C and VLDL-C can be calculated or determined using serum lipoprotein fractionation by preparative ultracentrifugation and subsequent quantitative analysis by refractometry or by analytic ultracentrifugal methodology. Apo A1, Apo B and hsCRP can be determined from serum using standard nephelometry techniques. Lipoprotein (a) can be determined from serum using standard turbidimetric immunoassay techniques. LDL particle number and particle size can be determined using nuclear magnetic resonance (NMR) spectrometry. Remnants lipoproteins and LDL-phospholipase A2 can be determined from EDTA plasma or serum and serum, respectively, using enzymatic immunoseparation techniques. Oxidized LDL, intercellular adhesion molecule-1 and interleukin-2 levels can be determined from serum using standard enzyme immunoassay techniques. These techniques are described in detail in standard textbooks, for example Tietz Fundamentals of Clinical Chemistry, 6th Ed. (Burtis, Ashwood and Borter Eds.), WB Saunders Company.
(§2) A multi-center, placebo-controlled, randomized, double-blind, 12-week study was performed to evaluate the efficacy and safety of >96% E-EPA in patients with fasting triglyceride levels >200 mg/dl and <500 mg/dl despite statin therapy (the mean of two qualifying entry values needed to be >185 mg/dl and at least one of the values needed to be >200 mg/dl). The primary objective of the study was to determine the efficacy of >96% E-EPA 2 g daily and 4 g daily, compared to placebo, in lowering fasting TG levels in patients with high risk for cardiovascular disease and with fasting TG levels 200 mg/dl and <500 mg/dl, despite treatment to LDL-C goal on statin therapy.
(§3) The secondary objectives of this study were the following: • 1. To determine the safety and tolerability of >96% E-EPA 2 g daily and 4 g daily; • 2. To determine the effect of >96% E-EPA on lipid and apolipoprotein profiles including total cholesterol (TC), non-high-density lipoprotein cholesterol (non-HDL-C), low density lipoprotein cholesterol (LDL-C), high density lipoprotein cholesterol (HDL-C), and […]; • 3. To determine the effect of >96% E-EPA on lipoprotein associated phospholipase A2 (Lp-PLA2) from baseline to week 12; • 4. To determine the effect of >96% E-EPA on low-density lipoprotein (LDL) particle number and size; • 5. To determine the effect of >96% E-EPA on oxidized LDL; • 6. To determine the effect of >96% E-EPA on fasting plasma glucose (FPG) and hemoglobin A1c (HbA1c); • 7. To determine the effect of >96% E-EPA on insulin resistance; • 8. To determine the effect of >96% E-EPA on high-sensitivity C-reactive protein (hsCRP); • 9. To determine the effects of >96% E-EPA 2 g daily and 4 g daily on the incorporation of fatty acids into red blood cell membranes and into plasma phospholipids; • 10. To explore the relationship between baseline fasting TG levels and the reduction in fasting TG levels; and • 11. To explore the relationship between changes of fatty acid concentrations in plasma and red blood cell membranes, and the reduction in fasting TG levels.
(§4) The primary efficacy variable for the double-blind treatment period was percent change in TG from baseline to Week 12 endpoint. […]

[2] = test system: patients with fasting triglyceride levels >200 mg/dl and <500 mg/dl despite statin therapy; assay: 12-week study: inflammatory biomarkers (ICAM-1, interleukin, PAI-1, hsCRP); type: in vivo, human; conditions: MITT; for ICAM-1, Difference from placebo, Estimated median / IL-6, Difference from placebo, Estimated median / PAI-1, Difference from placebo, Estimated median / hsCRP, Difference from placebo, Estimated median: Week 12; for hsCRP, Difference from placebo, Estimated median: post-hoc, median percent change from baseline; for ICAM-1, Week 12 EP Median (IQR) / IL-6, Week 12 EP Median (IQR) / PAI-1, Week 12 EP Median (IQR) / hsCRP, Week 12 EP Median (IQR): Week 12 endpoint (LOCF); for hsCRP, Week 12 EP Median (IQR) / hsCRP, Median % Chg from BL (IQR): post-hoc analysis; for ICAM-1, change from Baseline, Median (IQR) / IL-6, change from Baseline, Median (IQR) / PAI-1, change from Baseline, Median (IQR) / hsCRP, Median % Chg from BL (IQR): baseline to Week 12
Description: as §1, §2, §3, §4

[3] = 2 g/day E-EPA (n = 221), 12 weeks
[4] = 2 g/day E-EPA (n = 222), 12 weeks
[5] = 2 g/day, 12 weeks, Hodges-Lehmann median
[6] = 4 g/day E-EPA (n = 215), 12 weeks
[7] = 4 g/day E-EPA (n = 216), 12 weeks
[8] = 4 g/day, 12 weeks, Hodges-Lehmann median, listed as E-EPA
[9] = IPE 4 g/day (n = 215), 12 weeks
[10] = IPE 4 g/day (n = 216), 12 weeks
[11] = IPE 4 g/day vs placebo, 12 weeks, Hodges-Lehmann median
[12] = AMR101 2 g/d + statin vs placebo
[13] = AMR101 4 g/d + statin vs placebo

SMILES: CC/C=C\C/C=C\C/C=C\C/C=C\C/C=C\CCCC(=O)OCC [AMR101, ethyl eicosapentaenoate]
- LDL particle size, % Δ from baseline (median) [1, 3]: +0.5%
- LDL particle size, End (median) [1, 3]: 20.0 nm
- HDL particle size, % Δ from baseline (median) [1, 4]: 0.0%
- HDL particle size, End (median) [1, 4]: 8.6 nm
- VLDL particle size, % Δ from baseline (median) [1, 4]: −5.0%
- VLDL particle size, End (median) [1, 4]: 53.2 nm
- HDL particle size, Placebo-Adjusted Median Change from Baseline, 2 g/d [1, 5]: 0.0%
- LDL particle size, Placebo-Adjusted Median Change from Baseline, 2 g/d [1, 5]: +0.5%
- VLDL particle size, Placebo-Adjusted Median Change from Baseline, 2 g/d [1, 5]: −4.8%
- LDL particle size, % Δ from baseline (median) [1, 6]: +0.5%
- LDL particle size, End (median) [1, 6]: 20.0 nm
- HDL particle size, % Δ from baseline (median) [1, 7]: −1.1%
- HDL particle size, End (median) [1, 7]: 8.6 nm
- VLDL particle size, % Δ from baseline (median) [1, 7]: −8.1%
- VLDL particle size, End (median) [1, 7]: 51.2 nm
- HDL particle size, Placebo-Adjusted Median Change from Baseline, 4 g/d [1, 8]: −1.2%
- LDL particle size, Placebo-Adjusted Median Change from Baseline, 4 g/d [1, 8]: +0.5%
- VLDL particle size, Placebo-Adjusted Median Change from Baseline, 4 g/d [1, 8]: −7.7%
- LDL Particle Size, Week 12 EP Median (IQR) ([1]; AMR101 2g/d + statin, n 221): 20.0 (0.6) nm
- LDL Particle Size, Percent change from Baseline, Median (IQR) ([1]; AMR101 2g/d + statin): 0.5 (2.5) %
- LDL Particle Size, Difference from placebo, Estimated median ([1]; AMR101 2g/d + statin): 0.5%
- LDL Particle Size, Week 12 EP Median (IQR) ([1]; AMR101 4g/d + statin, n 215): 20.0 (0.6) nm
- LDL Particle Size, Percent change from Baseline, Median (IQR) ([1]; AMR101 4g/d + statin): 0.5 (2.5) %
- LDL Particle Size, Difference from placebo, Estimated median ([1]; AMR101 4g/d + statin): 0.5%
- LDL particle size, Change From Baseline, % (median) [1, 9]: 0.5%
- LDL particle size, End of Treatment (median) [1, 9]: 20.0 nm
- HDL particle size, Change From Baseline, % (median) [1, 10]: −1.1%
- HDL particle size, End of Treatment (median) [1, 10]: 8.6 nm
- VLDL particle size, Change From Baseline, % (median) [1, 10]: −8.1%
- VLDL particle size, End of Treatment (median) [1, 10]: 51.2 nm
- HDL particle size, Median Change From Baseline IPE 4 g/day vs Placebo, % [1, 11]: −1.2%
- LDL particle size, Median Change From Baseline IPE 4 g/day vs Placebo, % [1, 11]: 0.5%
- VLDL particle size, Median Change From Baseline IPE 4 g/day vs Placebo, % [1, 11]: −7.7%
- ICAM-1, Difference from placebo, Estimated median [2, 12]: -6.0 ng/mL
- IL-6, Difference from placebo, Estimated median [2, 12]: 0.1 pg/mL
- PAI-1, Difference from placebo, Estimated median [2, 12]: 12.1 ng/mL
- hsCRP, Difference from placebo, Estimated median [2, 12]: −6.8%
- ICAM-1, Week 12 EP Median (IQR) ([2]; AMR101 2 g/d + statin): 268.5 (89.0) ng/mL
- IL-6, Week 12 EP Median (IQR) ([2]; AMR101 2 g/d + statin): 2.7 (2.3) pg/mL
- PAI-1, Week 12 EP Median (IQR) ([2]; AMR101 2 g/d + statin): 90.3 (67.4) ng/mL
- hsCRP, Week 12 EP Median (IQR) ([2]; AMR101 2 g/d + statin): 2.5 (3.4) mg/L
- ICAM-1, change from Baseline, Median (IQR) ([2]; AMR101 2 g/d + statin): 1.5 (37.0) ng/mL
- IL-6, change from Baseline, Median (IQR) ([2]; AMR101 2 g/d + statin): 0.2 (1.3) pg/mL
- PAI-1, change from Baseline, Median (IQR) ([2]; AMR101 2 g/d + statin): 14.6 (38.8) ng/mL
- hsCRP, Median % Chg from BL (IQR) ([2]; AMR101 2 g/d + statin): 10.3 (88.6) %
- ICAM-1, Difference from placebo, Estimated median [2, 13]: -6.0 ng/mL
- IL-6, Difference from placebo, Estimated median [2, 13]: -0.1 pg/mL
- PAI-1, Difference from placebo, Estimated median [2, 13]: 0.6 ng/mL
- hsCRP, Difference from placebo, Estimated median [2, 13]: −22.0%
- ICAM-1, Week 12 EP Median (IQR) ([2]; AMR101 4 g/d + statin): 270.0 (110.0) ng/mL
- IL-6, Week 12 EP Median (IQR) ([2]; AMR101 4 g/d + statin): 2.6 (2.1) pg/mL
- PAI-1, Week 12 EP Median (IQR) ([2]; AMR101 4 g/d + statin): 85.6 (86.3) ng/mL
- hsCRP, Week 12 EP Median (IQR) ([2]; AMR101 4 g/d + statin): 2.0 (3.0) mg/L
- ICAM-1, change from Baseline, Median (IQR) ([2]; AMR101 4 g/d + statin): 2.5 (40.0) ng/mL
- IL-6, change from Baseline, Median (IQR) ([2]; AMR101 4 g/d + statin): 0.1 (1.8) pg/mL
- PAI-1, change from Baseline, Median (IQR) ([2]; AMR101 4 g/d + statin): −3.1 (45.2) ng/mL
- hsCRP, Median % Chg from BL (IQR) ([2]; AMR101 4 g/d + statin): −2.4 (62.8) %
